# Laboratory results reported in patent US20250228863A1, “Methods and Products to Screen and Treat Glioblastoma Multiforme and Other Cancers, Including Breast Cancers, Using A Combination of PI3KINASE Inhibitors With Checkpoint Inhibitors” (GLOBAL CANCER TECHNOLOGY, INC., priority 2022, published 2025).
# Legend:
# MCF7 SEMA7A OE cells = experiment: MCF7 EV and SEMA7A over-expressing cells treated with endocrine therapy and/or PI3K inhibitor; format: cell-based, human
# Method: Cell Culture Protocol: Cells were plated in 10 cm plates at ˜1 million cells/plate and incubated overnight to allow adherence. Cell lines and media that were used included McCoy's 5a modified media for HER2+ breast cancer cell line SKBR3 cells, and for MDA-MB-231, MDA-MB-468, MCF-7, and HS578t, culture medium was DMEM. Cells were then treated with the PI3K inhibitor: 0 uM (control), 1 uM, or 10 uM. Treated cells incubated for ˜72 hours. After incubation, cells were imaged, then harvested with 0.25% trypsin/EDTA and counted using trypan blue viability stain with Nexcelom Cellometer Mini. The MDA-MB-231 cell line is an epithelial, human breast cancer cell line that was established from a pleural effusion of a patient with metastatic mammary adenocarcinoma.
# FIG. 13A, FIG. 13B, and FIG. 13C. […] MCF7EV and SEMA7A OE cells were treated for 48 hours with A) fulvestrant (7.5 nM), B} Alpelisib (1 uM), or C) the combination.
# FIG. 14A, FIG. 14B, FIG. 14C, FIG. 14D, and FIG. 14E. SEMA7A-expressing cells are sensitive to both Alpelisib and a novel PI3K inhibitor (GCT.BR.1) FIG. 14A) MCF7 cells treated with vehicle, 1 uM Alpelisib and 1 uM GCT.BR.1. Scalebar=10 microns. FIG. 14B) Quantification of A. FIG. 14C) MCF7 S7 OE spheroids in suspension were treated with vehicle (DMSO), 1 uM Alpelisib or 0.5 uM GCT and stained with Calcein green viability dye after 48 h. […]
# [1] = orally available; literature statement; cited from earlier work
smiles,measurement,setting,value
C[C@]12CC[C@@H]3c4ccc(O)cc4C[C@@H](CCCCCCCCC[S+]([O-])CCCC(F)(F)C(F)(F)F)[C@H]3[C@@H]1CC[C@@H]2O (stereo partly drawn) [fulvestrant],response of SEMA7A over-expressing cells to treatment,"MCF7 SEMA7A OE cells; 48 hours, fulvestrant 7.5 nM, Alpelisib 1 uM, FIG. 13",respond poorly
CC1(C)OCCn2c1nc1c(N3CCOCC3)nc(-c3cnc(N)nc3)nc12 [GDC 0084],blood brain barrier permeation,[1],can permeate the blood brain barrier
Cc1nc(NC(=O)N2CCC[C@H]2C(N)=O)sc1-c1ccnc(C(C)(C)C(F)(F)F)c1 [Alpelisib],sensitivity of SEMA7A-expressing cells,"MCF7 SEMA7A OE cells; MCF7, 1 uM, FIG. 14",sensitive
